Assay results from patent publication US20220056075A1, “METHOD FOR TREATING OPIOID USE DISORDER” (THE ADMINISTRATORS OF THE TULANE EDUCATIONAL FUND, priority 2019, published 2022).
Values joined by “and” are separate entries in the source; they are usually repeats but may differ in a detail not shown here. Equal entries are not always repeated. “Also recorded” adds a separate entry of the source.

What was measured:
male and female mice = format: in vivo, mouse; conditions: s.c., compared to vehicle
rats = conditions: cited from earlier work
Male Sprague-Dawley rats = experiment: Reinstatement of morphine-induced conditioned place preference; conditions: priming dose 1.8 mg/Kg, 20 min, vs baseline
Method: Male Sprague-Dawley rats were exposed to a conditioned place preference (CPP) apparatus for two sessions to determine baseline (BL) preference for 2 distinct, unbiased chambers. […] The animals then underwent extinction procedures consisting of confinement for 45 min in the previously drug- and vehicle-paired chambers for 7 days.

Male Sprague Dawley rats [1] = experiment: Conditioned place preference (CPP), 5-day procedure; format: in vivo, rat; conditions: 5 days of conditioning
Method: (§1) Conditioned Place Preference (CPP) and locomotor activity: Standard CPP chambers (TSE; Chesterfield, Mo.) were used to measure baseline activity and conditioning trials. Baseline activity was measured over 2 days with 4 trials per day (2 in the AM, and 2 in the PM) lasting 20 min each. […] Conditioning trials were conducted for 5 days and tested in an unbiased manner such that drug/environment pairings were counterbalanced for time of drug injection (AM or PM) and compartment (preferred or non-preferred) based on baseline activity. […] This indicates a lack of carry-over effects of drug between sessions. One day following the last conditioning trial, a 20 min test trial was conducted in the same manner as baseline trials in which rats were free to explore both compartments. Change in time spent exploring the drug-paired compartment (test-baseline) was used to indicate preference (or aversion) to the compartment. Approximately 20 min following the final session, rats were perfused and brain samples were taken for immunohistochemical analysis (below). Locomotor activity was assessed by infrared light beams located in the conditioning compartments and the start box. […] Data were recorded in meters and an assessment of locomotor sensitization was made by subtracting the first session from the final session.
(§2) Experimenters were blinded to treatment groups.

[2] = tested on: rats trained to discriminate morphine from vehicle; experiment: Drug discrimination (DD), morphine-trained rats; conditions: for Maximum % drug-appropriate responding / response rates for food during test sessions: i.v.; for Maximum % drug-appropriate responding: male rats; for Response rate impairment %: highest dose tested (5.6 mg/Kg), percent of vehicle responding; for response rates for food during test sessions: compared to vehicle
Method: Drug Discrimination (DD): Rats were food deprived to approximately 85% of the weight of free feeding cohorts to establish operant responding for 45 mg food pellets (Bioserve, Frenchtown, N.J.) in standard operant chambers (MED Associates, St. Albans, Vt.). Rats were fed 10-20 g of standard food after daily DD sessions, and ˜3× the daily amount on weekends to maintain appropriate weight. DD consisted of 3 phases (Krivsky et al., 2006). In phase 1, rats were trained to lever press for food at a fixed ratio (FR) level 1 (i.e., 1 lever press=1 food pellet) using 2 levers with stimulus lights located above each lever and a food hopper between the levers during 120 min sessions. Responding on either lever extinguished the light and delivered a food pellet. […] Once >20 pellets were earned at FR9, sessions were shortened to 20 min and response requirements were set at FR10 and the left or right lever reinforced responding on alternate days. Once >20 pellets were earned on each lever at FR10, rats started phase 2 of DD training.
Only responses on the correct lever were reinforced and responses on the incorrect lever reset the response requirement on the correct lever. Criteria to move to phase 3 were as follows: >20 pellets per session, >90% injection appropriate lever responding, and <9 responses on the incorrect lever before the first food pellet reward.
Two paradigms were utilized to generate substitution curves: cumulative within-session and bolus between-session injections.
During substitution tests, both levers actively delivered food at an FR10 schedule. […] Doses were increased in ¼ log increments, with injections every 20 min followed 15 minutes later by DD sessions lasting 5 min each. […] The advantage of this procedure was that an entire dose-response was generated in one session.
Statistics: PRISM software (GraphPad, San Diego, Calif.) was used for one-way analysis of variance (ANOVA) with Newman-Keuls post-hoc comparisons to compare CPP groups, locomotor effects, hot plate, and DD response rates. Locomotor data recorded during the conditioning sessions were analyzed by 2-way ANOVA (session x drug) and data from the first session were subtracted from the final session to assess locomotor enhancement. Experimenters were blinded to treatment groups.

[3] = tested on: dopamine (DA) neurons in the posterior VTA; experiment: VTA dopamine cell soma morphology (TH staining, STEREO INVESTIGATOR); format: in vivo, rat; conditions: 5 consecutive daily i.v. injections; morphine effect at 5.6 mg/Kg
Method: DA morphology analysis: Fifteen min following the final CPP test session, rats were anesthetized with a mixture of ketamine/xylazine (85/10 mg/Kg, i.p., respectively) and perfused intracardially with 200 mL of 0.1 mol/L phosphate buffered saline (PBS) immediately followed by 300 mL of 4% paraformaldehyde in 0.1 mol/L PBS (pH=7.4). Brains were removed and post-fixed at 4° C. in the same fixative for 18 h. After post-fixation, brains were incubated in 30% sucrose at 4° C. for 2 days and sectioned coronally on a cryostat at 40 μm at the level of the posterior VTA (Spiga et al., 2003; Chu et al., 2008). After 2 consecutive washes in PBS, sections were blocked with 5% normal donkey serum (NDS) for 1 h, and incubated with the primary antibody anti-tyrosine-hydroxylase (anti-TH, 1: 3000 Cell Signaling Technology, Danvers, Mass.) overnight at 4° C. Slices were washed twice in PBS, re-blocked for 1 h, and incubated with the secondary antibody ALEXA594 (Life Technologies, Carlsbad, Calif.), for 2 h. Sections were washed, mounted on slides with PROLONG GOLD (Life Technologies), and stored at 4° C. Posterior VTA sections were verified according to the atlas of Paxinos and Watson (2007). Images of the parabrachial pigmented area (PBP) and the paranigral area (PN) subregions of the posterior VTA were captured in z-stacks (1 μm) with at least 5 tissue slices per rat and 5-6 rats per drug group. STEREO INVESTIGATOR software (MBF Bioscience; Williston, Va.) was used to quantify soma size using the optical fractionator probe to survey a sample of neurons in each z-stack while the nucleator probe was used to measure the cross-sectional area and volume of each cell soma. The optical fractionator probe was used to quantify the number of cells in a particular section of tissue through systematic random sampling. Between 12 and 16 regions were surveyed per z-stack. While the optical fractionator probe utilized stereological techniques to select a random sample to be analyzed, the nucleator probe measured the cross-sectional area of each neuron. Therefore, the simultaneous use of these probes systematically assessed neurons in the PBP and PN regions of the VTA in each subject, and provided morphological data for these cells including surface area (μm^2) and volume (μm^3). Cell somas were eligible to be quantified if they were located within the counting frame and/or if the soma touched either of the nucleator frame's green borders. Neurons were ineligible if located outside the counting frame and/or if their soma touched the frame's red borders. After determining this optimum depth, the center of the soma was located and analyzed by the nucleator probe. To eliminate bias associated with tissue orientation, nucleator rays were randomly arranged between quantifications. […]

male and female rats = experiment: Naloxone-induced conditioned place aversion (CPA); format: in vivo, rat; conditions: i.v. morphine 5.6 mg/Kg or ZH853 4.2 mg/Kg, naloxone 1 mg/Kg s.c. 4 h later
Method: Four hours later they received s.c. naloxone (1 mg/Kg) and were confined to one side of the apparatus (counterbalanced) for 20 min. The following day the animals received vehicle-then-saline rather than drug-then-naloxone. This cycle (drug+4 h+nlx+next day vehicle+saline) was repeated once, and the next day the animals had access to the entire apparatus (Post-cond).
To assess whether ZH853 induces the negative affect typical of opioid withdrawal, the conditioned place aversion (CPA) test was conducted.

Male Sprague Dawley rats [4] = experiment: Locomotor sensitization during CPP conditioning sessions; format: in vivo, rat; conditions: 1.8, 3.2, 5.6 mg/Kg i.v., 5 daily injections, compared to vehicle
Method: as §1, §2

[5] = cumulative doses producing maximum antinociceptive effects; cited from earlier work
male rats [6] = experiment: Forced abstinence and relapse test (oxycodone seeking); format: in vivo, rat; conditions: 8th day of forced abstinence; i.v. pretreatment ZH853 1.8 or 3.2 mg/kg, oxycodone 0.32 mg/kg
Method: (§3) Self-administration (SA): Self-administration tests were conducted in standard operant chambers (MED Associates, St. Albans, Vt.). Infusions were delivered through TYGON tubing threaded through metal spring leashes and attached to exterior infusion pumps. 3-hour sessions were conducted Monday-Friday during the dark cycle. At the start of each session, the house light was illuminated, and levers extended. […] For the first 5 sessions, rats were trained to lever press for oxycodone (0.1 mg/kg/infusion) on a FR1 reinforcement schedule. For the following 10 sessions, the dose of oxycodone was decreased to 0.05 mg/kg/infusion to increase lever responding.
Forced abstinence and relapse test: Following acquisition of oxycodone self-administration, rats underwent 7 days of forced abstinence from oxycodone and exposure to the testing environment in their home cages. Animals were then split into treatment groups counterbalanced for total oxycodone intake, average number of infusions obtained in the last 3 sessions, and average number of active lever pressings over the last 3 sessions. On the 8th day of forced abstinence, rats were given an intravenous injection of 1.8 mg/kg ZH853, 3.2 mg/kg ZH853, or vehicle. The relapse test began 30 minutes later.

male rats [7] = experiment: Maintenance of established oxycodone self-administration (substitution); format: in vivo, rat; conditions: after acquisition of oxycodone SA; drug continued or substituted, i.v. infusions
Method: as §3
Maintenance of established oxycodone self-administration: Following acquisition of oxycodone self-administration, animals were split into treatment groups counterbalanced for total oxycodone intake, average number of infusions obtained in the last 3 sessions, and average number of active lever pressings over the last 3 sessions. Ten maintenance sessions were conducted in the same way as oxycodone acquisition except rats were either maintained on 0.1 mg/kg/infusion oxycodone or had drug availability substituted with equi-antinociceptive 1 mg/kg/infusion ZH853 or vehicle.

DBA mice = experiment: Hot plate antinociception test; format: in vivo, mouse; conditions: 40 mg/Kg, s.c.

CN1CC[C@]23c4c5ccc(O)c4O[C@H]2[C@@H](O)C=C[C@H]3[C@H]1C5.O=S(=O)(O)O [Morphine, Morphine sulfate, reference compound]
tail flick antinociception (male and female mice): increased the latency to tail flick
hourly SA intake (rats; 12-hour SA sessions, 1 mg/Kg/infusion): ~3.5 mg/kg/h
reinstatement of morphine CPP after extinction (Male Sprague-Dawley rats): showed reinstatement of CPP
conditioned place preference (CPP) (Male Sprague Dawley rats [1]; 3.2 mg/Kg i.v.): produced conditioned place preference (CPP) effects
conditioned place preference (CPP) (Male Sprague Dawley rats [1]; 1.8 and 5.6 mg/Kg i.v.): did not produce significant CPP
doses disrupting response rates during test sessions ([2]; bolus injections): ≥ 3.2 mg/kg
Maximum % drug-appropriate responding ([2]; bolus injections made between sessions): 100%
Response rate impairment % ([2]; bolus injections, sulfate): 77% and 77.1%
doses disrupting response rates during test sessions ([2]; cumulative injections): ≥ 5.6 mg/kg
Maximum % drug-appropriate responding ([2]; cumulative injections within a single session): 100%
Response rate impairment % ([2]; cumulative injections, sulfate): 55% and 54.5%
response rates for food during test sessions [2]: reduced response rates compared to vehicle
response rates for food during training ([2]; training doses 3.2 mg/Kg s.c. and 1.8 mg/Kg i.v., compared to saline): modestly impaired
appropriate drug-lever responding ([2]; training, after approximately 20 sessions): > 90%
surface area of TH-positive somas in pVTA [3]: reduced
volume of TH-positive somas in pVTA [3]: reduced
naloxone-induced place aversion (male and female rats): produces aversive behavior
locomotor sensitization (LS), day 5 minus day 1 (Male Sprague Dawley rats [4]): produced LS at all doses tested

NC(=O)[C@@H]1CCCCNC(=O)CC[C@@H](NC(=O)[C@@H](N)Cc2ccc(O)cc2)C(=O)N[C@@H](Cc2ccccc2)C(=O)N[C@@H](Cc2ccccc2)C(=O)N1 [ZH831, Tyr-c[D-Glu-Phe-Phe-Lys]-NH2]
reinforcing effects in SA/CPP procedures (rats; rat, in vivo): did not produce reinforcing effects in SA/CPP procedures
motor impairment on the Rotarod [5]: lack of motor impairment
Response rate impairment % ([2]; bolus injections): 21% and 21.1%
Response rate impairment % ([2]; cumulative injections): 31% and 30.6%
response rates for food during test sessions [2]: not impaired

NC(=O)[C@@H]1CCC(=O)NCCCC[C@@H](NC(=O)[C@@H](N)Cc2ccc(O)cc2)C(=O)N[C@@H](Cc2c[nH]c3ccccc23)C(=O)N[C@@H](Cc2ccccc2)C(=O)N1 [ZH850, Tyr-c[D-Lys-Trp-Phe-Glu]-NH2]
Response rate impairment % ([2]; bolus injections): 30% and 30.4%
Response rate impairment % ([2]; cumulative injections): −0.3%
response rates for food during test sessions [2]: impaired response rates only after bolus, but not after cumulative injections; also recorded: reduced response rates compared to vehicle

COc1ccc2c3c1O[C@H]1C(=O)CC[C@@]4(O)[C@@H](C2)N(C)CC[C@]314 [oxycodone, reference compound]
oxycodone-seeking (SA behavior, active lever responding) in 1-hour relapse test (male rats [6]): associated with a relapse to SA behavior
self-administration behavior during maintenance sessions (male rats [7]): the drug-seeking behavior was maintained

COC(=O)/C=C/C(=O)N[C@@H]1CC[C@@]2(O)[C@H]3Cc4ccc(O)c5c4[C@@]2(CCN3CC2CC2)[C@H]1O5 [βFNA, beta-funaltrexamine]
antinociceptive properties alone (DBA mice): no antinociceptive properties alone
